Results from patent publication US20200333357A1, “NOVEL TFEB PATHWAY AGONISTS FOR METABOLIC DISEASES AND AGEING” (The Board of Regents of the University of Texas System, priority 2017, published 2020).
Counter-ions that a name gives are not always drawn.

How the values were obtained:
HeLa cells = test: Fura-2 Ca2+ imaging; format: cell-based, human; conditions: exposure at ~TFEB EC90
Procedure: HeLa cells treated with compounds or DMSO for 4 hr were loaded with Fura-2-AM (3 μM) in cell culture medium for 60 min at 37° C. Cells were washed twice then incubated in fresh medium for 30 min to allow complete de-esterification of intracellular AM esters. Imaging was performed at 37° C. with 5% CO2 on an epifluorescent microscope (Deltavision, Applied Precision) equipped with a digital monochrome Coolsnap HQ2 camera (Roper Scientific, Tucson, Ariz.). Fluorescence images were collected using SoftWoRx v3.4.5 (Universal Imaging, Downingtown, Pa.). Data were recorded at excitation/emission wavelengths of 340/510 nm (Fura-340 filter) and 387/510 nm (Fura-380 filter). The single band pass excitation filter for Fura-340 and Fura-380 is 26 nm and 11 nm, respectively, and the band pass of emission filters for Fura-340 and Fura-380 is 84 nm. Intracellular calibration of Fura-2 was accomplished by manipulating the Ca^2+ levels inside cells using the ionphore ionomycin (20 μM, Sigma-Aldrich) and by incubating cells in buffers with various Ca^2+ concentrations (calcium calibration buffer kit—Invitrogen). Intracellular fluorescence ratios were determined using ImageJ software. Images were background-corrected by subtracting the mean pixel values of a cell-free region near the region of interest. Fluorescent intensity ratio R=F340/F380, and Ca^2+ concentration can be calculated from Equation 3, where Kd can be obtained from intracellular calibration:
[Ca^2+]Kd×F380,min/F380,max×(R−Rmin)/(Rmax−R) (3)

NFAT = test: Endogenous NFAT nuclear translocation; format: cell-based; conditions: high or intermediate doses
Procedure: (§1) SFIGS. […] (SFIG. 4B) Representative images of GFP-TFEB HeLa cells treated with 3.3 μM AD or in combination with 5 μM FK506, 10 μM CsA or both. […] Scale bar, 20 μm. […] Scale bar, 20 μm. […] Scale bar, 20 μm. (SFIGS. 4F-G) Immunoblots of wide-type HeLa cells treated with various doses (starting from 3.3 μM with a 3-fold dilution, and right-most lane is DMSO) of AD and IKA.

AMPK = AMPK and ACC phosphorylation immunoblots; format: cell-based, human; conditions: HeLa cells, dose-dependent
Procedure: as §1

[1] = system: C57BL/6J mice fed a high-fat diet; test: High-fat diet mouse model for in vivo compound delivery; conditions: for known TFEB target genes mRNA in liver and muscle: HFD mice treated with AD or IKA (PEG-PLA nanoparticles i.v.); for high fat diet-induced steatosis (liver histology): 3 weeks, DG oral, AD and IKA i.v. in PEG-PLA nanoparticles; for body weight/composition and blood chemistry: AD 1 mg kg-1 or IKA 0.5 mg kg-1 in PEG-PLA nanoparticles i.v.; for expression of Ppargc1α, Ppar1α and Fgf21: liver
Procedure: Total RNA was isolated from MEFs or mouse tissues using RNeasy minipreps (QIAGEN). Complementary DNA (cDNA) was synthesized with the High capacity RNA-to-cDNA kit (Applied biosystems), and qRT-PCR was performed using TaqMan® Gene Expression Assays (Applied biosystems) for the indicated genes on the LightCycler System (Roche Applied Science). Gapdh was used to normalize RNA input. The mouse probes used in this study were: Tfeb (Mm00448968_m1), Ctsa (Mm00447197_m1), Mcoln 1 (Mm00522550_m1), Ppara (Mm00440939_m1), Ppargc1a (Mm01208835_m1), Fgf21 (Mm00840165_g1) and Gapdh (Mm99999915_g1), and the human probes used were TFEB (Hs00292981_m1), CTSA (Hs00264902_m1), MCOLN1 (Hs01100653_m1), PPARGC1A (Hs00173304_m1), PPARA (Hs00947536_m1), UVRAG (Hs01075434_m1), GAPDH (Hs02758991_g1) and p62/SQSTM1 (Hs01061917_g1). All probes were from Thermo Fisher Scientific Inc.
All mouse experiments were approved and carried out following the ethical guidelines established by the Institutional Animal Care and Use Committee at UT Southwestern Medical Center. The investigators were not blinded to allocation during experiments and outcome assessment. Four to six weeks old male C57BL/6J mice were randomly divided into groups fed a regular diet (Harlan Teklad) or a high-fat diet (HFD) containing 60% fat (Research Diets). After one month, the HFD mice were grouped so that the average body weights of mice in each group were similar. The grouped mice were orally administered DG (2.5 mg kg-1) or its solvent 50% HPβCD solution, or intravenously injected with AD (1 mg kg-1) or IKA (0.5 mg kg-1) encapsulated in the PEG-PLA nanoparticles or empty nanoparticles, three times a week for three weeks. Body weight and food intake were measured twice a week before treatment and every day after treatment in the middle of the light period. The cage tops containing food pellets were weighed, as well as the spilled food in the bottom of the cage. The food intake was corrected for spillage.
At the end of the treatment, the body composition of each mouse was analyzed by EchoMRI (Echo Medical Systems LLC) according to the manufacturer's instructions.
For glucose tolerance tests, the mice were orally administered 1 mg g-1 glucose (Sigma-Aldrich) after a 4 hr fast. For insulin tolerance tests, the mice were intraperitoneally injected with 0.75 milliunit g-1 insulin (Humulin R, Eli Lily) after a 4 hr fast. Blood was drawn from tail veins at indicated time points after injection. Experiments were performed during light period. Serum glucose levels were analyzed using commercial glucose reagents (Sigma).
At the end of the treatment, blood was collected from the orbital plexus under anesthesia. Serum was frozen in aliquots and stored at −20° C. for further analysis. Specific enzyme kits were used to detect serum levels of triglyceride (Fisher Scientific), cholesterol (Fisher Scientific) and glucose (Sigma-Aldrich).
Livers and other organs were dissected and embedded in OCT. Cryostat sections were cut at 10 μm. The sections were stored at −80° C. and subjected to haematoxylin/eosin and oil red O staining following standard protocol. The immunohistochemistry (IHC) staining of p62 was performed following the protocol of Cell Signaling Technology. The primary antibody was from Abcam, and the SignalStain® boost IHC detection reagent and DAB substrate kit were from Cell Signaling Technology. All the sections were imaged using a NanoZoomer 2.0-HT Digital slide scanner (Hamamatzu) and processed using NDP viewer software.

[2] = HFD mice, three times a week for three weeks
[3] = HFD mice, DG 2.5 mg kg-1 oral, three times a week for three weeks

| Structure (SMILES) | cytosolic calcium (Fura-2) (HeLa cells) | nuclear translocation of NFAT (NFAT) | activating phosphorylation of AMPK and its substrate ACC (AMPK) | known TFEB target genes mRNA in liver and muscle [1] | high fat diet-induced steatosis (liver histology) ([1]; HFD mice) | body weight/composition and blood chemistry [1, 2] | expression of Ppargc1α, Ppar1α and Fgf21 ([1]; HFD mice) | body composition [1, 3] | body weight [1, 3] | circulating cholesterol [1, 3] | circulating glucose [1, 3] | circulating insulin levels [1, 3] | circulating triglycerides [1, 3] |
| --- | --- | --- | --- | --- | --- | --- | --- | --- | --- | --- | --- | --- | --- |
| CCCCC(CC)CNC(=N)NC(=N)NCCCCCCNC(=N)NC(=N)NCC(CC)CCCC (stereo not shown) [AD, alexidine dihydrochloride] | induce accumulation of cytosolic calcium | induced dose-dependent nuclear translocation | induced activating phosphorylation | upregulated in the liver rather than in the muscle | amelioration | significant normalization | upregulation | – | – | – | – | – | – |
| CC[C@H]1[C@@H]2C=C[C@@H]3[C@H]4C/C=C\C(=O)NCCC[C@@H]5NC(=O)/C(=C(O)/C=C/[C@@H]4C[C@@H]3[C@H]2C[C@H]1C)C5=O [IKA, ikarugamycin] | induce accumulation of cytosolic calcium | not | induced activating phosphorylation | upregulated in the liver rather than in the muscle | amelioration | significant normalization | upregulation | – | – | – | – | – | – |
| C[C@H]1O[C@@H](O[C@H]2[C@@H](O)C[C@H](O[C@H]3[C@@H](O)C[C@H](O[C@H]4CC[C@@]5(C)[C@H](CC[C@@H]6[C@@H]5C[C@@H](O)[C@]5(C)[C@@H](C7=CC(=O)OC7)CC[C@]65O)C4)O[C@@H]3C)O[C@@H]2C)C[C@H](O)[C@@H]1O [DG, digoxin, reference compound] | induce accumulation of cytosolic calcium | not | not | – | amelioration | – | upregulation | normalized | normalized | normalized | normalized | normalized | normalized |
